Read-outs that look alike come from different tables or passages of the source.
Tested on: cyclodextrin glucanotransferase (γ-CGTase, EC 2.4.1.19) of Brevibacterium sp. No. 9605
Assay type: biochemical
Description: (8) Activity measurement: In the measurements of the enzlanological properties described above, enzyme activity was measured by the following method. A 0.05 ml portion of an aqueous solution of the enzyme was added to 0.5 ml of a substrate solution (1.5% by weight soluble starch in 0.1M Atkins & Pantin buffer, pH 10.0) and incubated at 40° C. for 30 minutes. After adding 5 ml of 0.1N hydrochloric acid to terminate the reaction, a 0.5 ml portion of the reaction mixture was taken out and mixed with 5 ml of an iodine solution (0.005% iodine in 0.05% potassium iodide solution) to measure decrease in the absorbance at […]. One unit of the activity was defined as the amount of enzyme which decreases 1% of the absorbance at 660 nm within 1 minute under these conditions.

[1] = enzyme treated with 1 mM inhibitor at 40° C. for 10 minutes in 0.1M H3BO3·KCl-NaOH buffer (pH 8.0), control 100, activity on soluble starch, iodine method

## O=C(O)CI [MIA, monoiodoacetic acid]
pH 8
  Residual Activity (%): 82%

## CCN1C(=O)C=CC1=O [NEM, N-ethylmaleimide]
[1]
  Residual Activity (%): 84%

## O=C(O)c1cc[c]([Hg][Cl])cc1 [PCMB, p-chloromercuribenzoic acid]
[1]
  Residual Activity (%): 83%
